Test results from publication PMC10332445 (Journal of medicinal chemistry, 2023).

Legend:
GSPT1 = GSPT1 (Homo sapiens, UniProt P15170); test: Label-free proteomics in TMD8 cells: GSPT1; assay type: cell-based; details: 111 nM, 6 h
[1] = tested on: CSK, SYK, FRK, HCK, LYN, BAZ1B, TYK2, and Fes/Fps; test: Label-free proteomics in TMD8 cells: other kinases; assay type: cell-based, human; details: 111 nM, 6 h
IKZF1 and IKZF3 = test: Label-free proteomics in TMD8 cells: neo-substrates IKZF1/3; assay type: cell-based, human; details: 111 nM, 6 h
Mino cells [2] = test: Cell viability, CellTiter-Glo 2.0, Mino cells; assay type: cell-based; details: read-out: Mino Cells IC50, 48 h (Figure 6) or 72 h (method)
TMD8 cells [3] = test: Cell viability, CellTiter-Glo 2.0, TMD8 cells; assay type: cell-based; details: read-out: TMD8 Cells IC50, 48 h
TMD8 cells [4] = test: Apoptosis by Annexin-V/PI flow cytometry, TMD8 cells; assay type: cell-based; details: 48 h; for Induction of apoptosis: TMD8 cells, 3000 nM to 0.15 nM
BTK [5] = biological target: T1, BTK (Homo sapiens, UniProt Q06187); test: BTK degradation in Ramos cells by western blot; assay type: cell-based; details: for BTK degradation by parent molecules: GDC-0853 and/or pomalidomide, 3000 nM to 0.15 nM, Figure S2
T1 sequence (Q06187 whole entry): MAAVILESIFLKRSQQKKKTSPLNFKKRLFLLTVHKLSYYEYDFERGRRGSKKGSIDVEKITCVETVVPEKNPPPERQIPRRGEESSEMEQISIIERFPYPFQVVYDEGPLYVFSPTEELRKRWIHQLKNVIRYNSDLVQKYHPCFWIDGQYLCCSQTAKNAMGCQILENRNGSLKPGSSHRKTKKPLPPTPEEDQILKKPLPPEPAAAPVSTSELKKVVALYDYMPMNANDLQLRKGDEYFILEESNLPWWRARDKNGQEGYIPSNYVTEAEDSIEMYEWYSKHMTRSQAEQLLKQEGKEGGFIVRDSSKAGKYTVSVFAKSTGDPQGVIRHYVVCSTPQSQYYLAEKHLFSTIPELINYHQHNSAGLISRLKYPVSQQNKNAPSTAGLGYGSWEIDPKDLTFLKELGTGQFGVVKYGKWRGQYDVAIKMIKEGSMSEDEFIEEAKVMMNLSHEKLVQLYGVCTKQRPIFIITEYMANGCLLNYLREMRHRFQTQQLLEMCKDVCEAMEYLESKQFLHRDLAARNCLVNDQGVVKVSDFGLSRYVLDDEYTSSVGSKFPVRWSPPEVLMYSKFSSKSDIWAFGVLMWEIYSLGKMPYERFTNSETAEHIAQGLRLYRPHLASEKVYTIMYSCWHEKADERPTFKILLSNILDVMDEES

Mino cells [6] = test: Apoptosis by Annexin-V/PI flow cytometry, Mino cells; assay type: cell-based; details: 48 h, 3000 nM to 0.15 nM
BCR signaling pathway = BCR signaling pathway western blots in TMD8 and Mino cells; assay type: cell-based; details: 48 h, stimulated with anti-human IgM
BTK [7] = biological target: T1, BTK; test: BTK degradation in seven B-cell malignant cell lines; assay type: cell-based; details: Figure S4
[8] = tested on: caspase-3, PARP, Bcl-2, Mcl-1; test: Apoptosis pathway proteins by western blot in TMD8 and Mino cells; assay type: cell-based; details: 48 h
[9] = biological target: ternary complex between BTK and CRBN (Homo sapiens, UniProt Q06187+Q96SW2); test: NanoBRET ternary complex formation assay in HEK293 cells; assay type: cell-based; details: for Ternary complex formation (in words): live-cell NanoBRET
ternary complex between BTK and CRBN, sequence (Q06187 whole entry): as above
ternary complex between BTK and CRBN, sequence (Q96SW2 whole entry): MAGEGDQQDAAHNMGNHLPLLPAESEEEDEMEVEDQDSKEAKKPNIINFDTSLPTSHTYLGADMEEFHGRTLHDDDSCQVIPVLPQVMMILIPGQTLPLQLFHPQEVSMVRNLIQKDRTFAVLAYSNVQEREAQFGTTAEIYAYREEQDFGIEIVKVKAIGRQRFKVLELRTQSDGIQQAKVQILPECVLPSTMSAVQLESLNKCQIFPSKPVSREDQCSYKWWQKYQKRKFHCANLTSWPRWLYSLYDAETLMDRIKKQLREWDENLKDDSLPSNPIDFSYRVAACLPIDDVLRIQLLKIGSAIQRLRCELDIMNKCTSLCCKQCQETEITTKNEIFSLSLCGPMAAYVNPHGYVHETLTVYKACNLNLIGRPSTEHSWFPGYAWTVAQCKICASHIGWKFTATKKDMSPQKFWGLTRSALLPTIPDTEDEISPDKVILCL

CRBN = CRBN (Homo sapiens, UniProt Q96SW2); test: NanoBRET live-cell target engagement of CRBN in HEK293 cells; assay type: cell-based; details: number in parentheses, 37 °C
CRBN, sequence (Q96SW2 whole entry): as above

BTK [10] = biological target: T1, BTK; test: NanoBRET live-cell target engagement of BTK in HEK293 cells; assay type: cell-based; details: for Hill slope, BTK target engagement: number in parentheses, 37 °C

GSPT1, sequence (Q96SW2 whole entry partner): as the sequence (Q96SW2 whole entry) above
GSPT1, sequence (Q16531 whole entry partner): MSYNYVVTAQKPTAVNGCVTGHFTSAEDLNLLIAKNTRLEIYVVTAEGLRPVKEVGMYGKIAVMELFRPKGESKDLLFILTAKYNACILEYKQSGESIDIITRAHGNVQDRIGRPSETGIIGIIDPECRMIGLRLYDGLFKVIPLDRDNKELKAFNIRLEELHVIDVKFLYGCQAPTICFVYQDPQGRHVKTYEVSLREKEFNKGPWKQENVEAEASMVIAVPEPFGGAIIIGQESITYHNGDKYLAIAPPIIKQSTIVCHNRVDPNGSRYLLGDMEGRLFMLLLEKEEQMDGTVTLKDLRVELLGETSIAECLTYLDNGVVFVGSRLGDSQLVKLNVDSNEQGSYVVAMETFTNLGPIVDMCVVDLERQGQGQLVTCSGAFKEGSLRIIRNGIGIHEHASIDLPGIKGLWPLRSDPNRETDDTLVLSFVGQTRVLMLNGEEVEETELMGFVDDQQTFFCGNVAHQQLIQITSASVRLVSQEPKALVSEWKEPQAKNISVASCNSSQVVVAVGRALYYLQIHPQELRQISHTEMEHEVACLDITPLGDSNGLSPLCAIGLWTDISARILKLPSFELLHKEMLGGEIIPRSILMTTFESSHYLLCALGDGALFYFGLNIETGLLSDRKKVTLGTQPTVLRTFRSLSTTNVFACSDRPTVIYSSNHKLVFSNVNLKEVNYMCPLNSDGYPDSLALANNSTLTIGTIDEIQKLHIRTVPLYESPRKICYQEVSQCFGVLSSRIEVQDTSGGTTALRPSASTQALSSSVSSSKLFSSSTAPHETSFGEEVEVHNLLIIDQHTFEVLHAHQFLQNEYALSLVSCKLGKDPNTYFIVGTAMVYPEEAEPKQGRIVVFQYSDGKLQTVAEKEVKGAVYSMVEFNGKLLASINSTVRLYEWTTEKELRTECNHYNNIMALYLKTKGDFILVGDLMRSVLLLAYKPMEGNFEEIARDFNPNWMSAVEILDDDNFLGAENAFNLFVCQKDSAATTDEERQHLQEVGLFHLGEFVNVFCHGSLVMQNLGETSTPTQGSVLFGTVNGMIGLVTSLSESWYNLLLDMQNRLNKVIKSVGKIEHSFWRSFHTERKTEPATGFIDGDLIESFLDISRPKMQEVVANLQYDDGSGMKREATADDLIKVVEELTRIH
GSPT1, sequence (P15170 whole entry): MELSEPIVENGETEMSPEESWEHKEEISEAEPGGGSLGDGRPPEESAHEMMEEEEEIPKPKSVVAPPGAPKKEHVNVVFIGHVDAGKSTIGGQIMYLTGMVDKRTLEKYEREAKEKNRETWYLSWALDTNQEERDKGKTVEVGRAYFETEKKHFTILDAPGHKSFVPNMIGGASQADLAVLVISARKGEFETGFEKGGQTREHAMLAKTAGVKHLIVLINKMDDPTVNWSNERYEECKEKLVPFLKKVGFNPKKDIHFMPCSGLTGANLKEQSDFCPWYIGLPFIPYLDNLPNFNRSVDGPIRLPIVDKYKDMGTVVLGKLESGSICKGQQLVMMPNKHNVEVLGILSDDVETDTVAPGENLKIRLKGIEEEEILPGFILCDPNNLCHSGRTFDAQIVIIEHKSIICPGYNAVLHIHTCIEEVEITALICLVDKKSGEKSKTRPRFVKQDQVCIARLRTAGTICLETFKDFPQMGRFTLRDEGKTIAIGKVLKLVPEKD

Compound	Effect on levels of GSPT1 (GSPT1)	Effect on abundance of other kinases [1]	Degradation of neo-substrates IKZF1 and IKZF3 (IKZF1 and IKZF3)	Induction of apoptosis (TMD8 cells [4])	Induction of apoptosis (Mino cells [6])	Hill slope, CRBN target engagement (CRBN)	Hill slope, BTK target engagement (BTK [10])	also measured
4-((2-(2-(2-(2-azidoethoxy)ethoxy)ethoxy)ethyl)amino)-2-(2,6-dioxopiperidin-3-yl)isoindoline-1,3-dione [P13I, reference compound]	did not affect the levels	significant degradation of some off-targets, specifically, CSK and FRK	degrade					IC50 (Mino cells [2]): 10.4 ± 2.4 nM; IC50 (TMD8 cells [3]): 15 ± 2.8 nM
C[C@H]1CN(C2COC2)CCN1c1ccc(Nc2cc(-c3ccnc(N4CCn5c(cc6c5CC(C)(C)C6)C4=O)c3CO)cn(C)c2=O)nc1 [GDC-0853, fenebrutinib, reference compound]				a dose-dependent effect was observed	did not cause apoptosis			BTK degradation by parent molecules (BTK [5]; Ramos cells): no BTK degradation was observed; Effect on BCR signaling pathway (p-PLCγ2, p-BTK, p-AKT, p-NF-κB, PLCγ2, AKT, NF-κB) (BCR signaling pathway): less prominent
Cc1ncsc1-c1ccc(CNC(=O)[C@@H]2C[C@@H](O)CN2C(=O)[C@@H](NC(=O)COCCOCCCCCCC(=O)N2CCN(c3ccc(Nc4cc(-c5ccnc(N6CCn7c(cc8c7CC(C)(C)C8)C6=O)c5CO)cn(C)c4=O)nc3)[C@@H](C)C2)C(C)(C)C)cc1 [PTD3, (2S,4R)-1-((S)-2-(2-(2-((7-((S)-4-(6-((2’-(7,7-dimethyl-1-oxo-1,3,4,6,7,8-hexahydro-2H-cyclopenta[4,5]pyrrolo[1,2-a]pyrazin-2-yl)-3’-(hydroxymethyl)-1-methyl-6-oxo-1,6-dihydro-[3,4’-bipyridin]-5-yl)amino)pyridin-3-yl)-3-methylpiperazin-1-yl)-7-oxoheptyl)oxy)ethoxy)acetamido)-3,3-dimethylbutanoyl)-4-hydroxy-N-(4-(4-methylthiazol-5-yl)benzyl)pyrrolidine-2-carboxamide]								BTK degradation (VHL-based PROTAC) (BTK [5]; Ramos and JeKo-1 cell lines, 17 h, concentrations lower than 3000 nM, Figure S1): no degradation was observed
C[C@H]1CN(C(=O)CNc2cccc3c2C(=O)N(C2CCC(=O)NC2=O)C3=O)CCN1c1ccc(Nc2cc(-c3ccnc(N4CCn5c(cc6c5CC(C)(C)C6)C4=O)c3CO)cn(C)c2=O)nc1 (stereo partly drawn) [PTD10, 4-((2-((S)-4-(6-((2’-(7,7-dimethyl-1-oxo-1,3,4,6,7,8-hexahydro-2H-cyclopenta[4,5]pyrrolo[1,2-a]pyrazin-2-yl)-3’-(hydroxymethyl)-1-methyl-6-oxo-1,6-dihydro-[3,4’-bipyridin]-5-yl)amino)pyridin-3-yl)-3-methylpiperazin-1-yl)-2-oxoethyl)amino)-2-(2,6-dioxopiperidin-3-yl)isoindoline-1,3-dione]	did not affect the levels	did not affect the abundance of other kinases	degrade	induce apoptosis in a dose-dependent manner	induce apoptosis in a dose-dependent manner	1.0	1.9	BTK degradation in B-cell malignant cell lines (BTK [7]): potent degradation effects; Concentration at which robust apoptosis was detected (TMD8 cells [4]; TMD8 and Mino cell lines): 333 nM; Concentration at which Hook effect was observed (BTK [5]; BTK degradation, Figure 3): > 333 nM; BTK degradation on co-treatment with competitor (BTK [5]; Ramos cells, 111 nM PTD10 with 1 μM GDC-0853 or 20 μM iberdomide (CC-220), 17 h): BTK degradation was completely blocked; BTK degradation after pre-treatment with bortezomib or MLN-4924 (BTK [5]; Ramos cells, pre-treated 2 h, then 111 nM PTD10 for 4 h): inhibition of BTK degradation; Levels of Bcl-2 and Mcl-1 [8]: significant down-regulation; Levels of cleaved-PARP and cleaved caspase-3 [8]: increase; Ternary complex formation (in words) [9]: prominent ternary complex formation; Ternary Complex Formation (maximum) ([9]; maximum ternary complex formation setting the BRET ratio for PTD10 at 100%): 100%; Effect on BCR signaling pathway (p-PLCγ2, p-BTK, p-AKT, p-NF-κB, PLCγ2, AKT, NF-κB) (BCR signaling pathway): Robust downregulation was observed
C[C@H]1CN(C(=O)CNc2cccc3c2CN(C2CCC(=O)NC2=O)C3=O)CCN1c1ccc(Nc2cc(-c3ccnc(N4CCn5c(cc6c5CC(C)(C)C6)C4=O)c3CO)cn(C)c2=O)nc1 (stereo partly drawn) [PTD12, 3-(4-((2-((S)-4-(6-((2’-(7,7-dimethyl-1-oxo-1,3,4,6,7,8-hexahydro-2H-cyclopenta[4,5]pyrrolo[1,2-a]pyrazin-2-yl)-3’-(hydroxymethyl)-1-methyl-6-oxo-1,6-dihydro-[3,4’-bipyridin]-5-yl)amino)pyridin-3-yl)-3-methylpiperazin-1-yl)-2-oxoethyl)amino)-1-oxoisoindolin-2-yl)piperidine-2,6-dione]								Decrease in degradation activity compared to PTD10 (BTK [5]; DC50 ratio): ~ 8 fold
C[C@H]1CN(C(=O)c2cccc3c2C(=O)N(C2CCC(=O)NC2=O)C3=O)CCN1c1ccc(Nc2cc(-c3ccnc(N4CCn5c(cc6c5CC(C)(C)C6)C4=O)c3CO)cn(C)c2=O)nc1 (stereo partly drawn) [PTD13, 4-((S)-4-(6-((2’-(7,7-dimethyl-1-oxo-1,3,4,6,7,8-hexahydro-2H-cyclopenta[4,5]pyrrolo[1,2-a]pyrazin-2-yl)-3’-(hydroxymethyl)-1-methyl-6-oxo-1,6-dihydro-[3,4’-bipyridin]-5-yl)amino)pyridin-3-yl)-3-methylpiperazine-1-carbonyl)-2-(2,6-dioxopiperidin-3-yl)isoindoline-1,3-dione]						1.0	1.4	Ternary complex formation (in words) [9]: no ternary complex was observed
C[C@H]1CN(C(=O)COc2cccc3c2C(=O)N(C2CCC(=O)NC2=O)C3=O)CCN1c1ccc(Nc2cc(-c3ccnc(N4CCn5c(cc6c5CC(C)(C)C6)C4=O)c3CO)cn(C)c2=O)nc1 (stereo partly drawn) [PTD14, 4-(2-((S)-4-(6-((2’-(7,7-dimethyl-1-oxo-1,3,4,6,7,8-hexahydro-2H-cyclopenta[4,5]pyrrolo[1,2-a]pyrazin-2-yl)-3’-(hydroxymethyl)-1-methyl-6-oxo-1,6-dihydro-[3,4’-bipyridin]-5-yl)amino)pyridin-3-yl)-3-methylpiperazin-1-yl)-2-oxoethoxy)-2-(2,6-dioxopiperidin-3-yl)isoindoline-1,3-dione]	did not affect the levels	did not affect the abundance of other kinases	no degradation					
C[C@H]1CN(C(=O)CCCCCCCCCCCNc2cccc3c2C(=O)N(C2CCC(=O)NC2=O)C3=O)CCN1c1ccc(Nc2cc(-c3ccnc(N4CCn5c(cc6c5CC(C)(C)C6)C4=O)c3CO)cn(C)c2=O)nc1 (stereo partly drawn) [PTD15, 4-((12-((S)-4-(6-((2’-(7,7-dimethyl-1-oxo-1,3,4,6,7,8-hexahydro-2H-cyclopenta[4,5]pyrrolo[1,2-a]pyrazin-2-yl)-3’-(hydroxymethyl)-1-methyl-6-oxo-1,6-dihydro-[3,4’-bipyridin]-5-yl)amino)pyridin-3-yl)-3-methylpiperazin-1-yl)-12-oxododecyl)amino)-2-(2,6-dioxopiperidin-3-yl)isoindoline-1,3-dione]						0.5	1.3	Fold less potent than GDC-0853 at engaging BTK (BTK [10]; NanoBRET): 250 fold
Nc1cccc2c1C(=O)N(C1CCC(=O)NC1=O)C2=O (stereo not shown) [Pomalidomide, pomalidomide, reference compound]				little effect	induced apoptosis in Mino cells in a dose-dependent manner			BTK degradation by parent molecules (BTK [5]; Ramos cells): no BTK degradation was observed
